Experimental data reported in ChEMBL document CHEMBL3808363, “2-(Thienothiazolylimino)-1,3-thiazolidin-4-ones inhibit cell division cycle 25 A phosphatase” (Bioorg Med Chem, 2016).
Active and inactive are the calls of the source. The calls are words filed in the database; no cut-off is given here.

Key:
[1] = system: MDA-MB-231; assay: Cytotoxicity against human MDA-MB-231 cells assessed as inhibition of cell growth at IC50 concentration after 72 hrs by trypan blue assay; format: functional
[2] = target: T1, M-phase inducer phosphatase 2 (Homo sapiens) (UniProt P30305); assay: Inhibition of human recombinant GST-tagged CDC25B catalytic domain transfected in Escherichia coli BL21-DE3 using 3-O-methylfluorescein phosphate as substrate at 10 uM incubated for 20 mins followed by substrate addition measured every 10 mins for 2 hrs by fluorimetric assay
T1 sequence (whole entry): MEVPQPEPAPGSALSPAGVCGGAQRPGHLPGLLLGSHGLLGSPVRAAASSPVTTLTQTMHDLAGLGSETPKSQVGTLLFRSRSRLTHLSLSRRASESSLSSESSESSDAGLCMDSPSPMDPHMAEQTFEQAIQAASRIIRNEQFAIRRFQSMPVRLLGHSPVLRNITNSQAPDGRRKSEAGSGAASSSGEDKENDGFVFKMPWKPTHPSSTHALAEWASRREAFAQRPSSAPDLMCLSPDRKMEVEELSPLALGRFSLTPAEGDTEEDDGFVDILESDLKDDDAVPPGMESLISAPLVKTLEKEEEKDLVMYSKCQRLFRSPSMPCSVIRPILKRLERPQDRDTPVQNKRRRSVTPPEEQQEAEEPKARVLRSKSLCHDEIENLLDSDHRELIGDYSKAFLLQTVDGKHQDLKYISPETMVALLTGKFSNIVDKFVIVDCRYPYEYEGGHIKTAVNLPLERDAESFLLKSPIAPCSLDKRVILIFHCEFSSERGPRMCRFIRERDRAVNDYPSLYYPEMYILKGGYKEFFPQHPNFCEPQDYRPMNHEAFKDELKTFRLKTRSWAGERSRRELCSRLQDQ

[3] = system: MDA-MB-231; assay: Cytotoxicity against human MDA-MB-231 cells assessed as inhibition of cell growth after 72 hrs by MTT assay; format: functional, cell-based; conditions: MDA-MB-231, 72 h
[4] = target: T2, M-phase inducer phosphatase 1 (Homo sapiens) (UniProt P30304); assay: (§1) Inhibition of human recombinant full length GST-tagged CDC25A transfected in Escherichia coli BL21-DE3 using 3-O-methylfluorescein phosphate as substrate at 10 uM incubated for 20 mins followed by substrate addition measured every 10 mins for 2 hrs by fluorimetric assay
T2 sequence (whole entry): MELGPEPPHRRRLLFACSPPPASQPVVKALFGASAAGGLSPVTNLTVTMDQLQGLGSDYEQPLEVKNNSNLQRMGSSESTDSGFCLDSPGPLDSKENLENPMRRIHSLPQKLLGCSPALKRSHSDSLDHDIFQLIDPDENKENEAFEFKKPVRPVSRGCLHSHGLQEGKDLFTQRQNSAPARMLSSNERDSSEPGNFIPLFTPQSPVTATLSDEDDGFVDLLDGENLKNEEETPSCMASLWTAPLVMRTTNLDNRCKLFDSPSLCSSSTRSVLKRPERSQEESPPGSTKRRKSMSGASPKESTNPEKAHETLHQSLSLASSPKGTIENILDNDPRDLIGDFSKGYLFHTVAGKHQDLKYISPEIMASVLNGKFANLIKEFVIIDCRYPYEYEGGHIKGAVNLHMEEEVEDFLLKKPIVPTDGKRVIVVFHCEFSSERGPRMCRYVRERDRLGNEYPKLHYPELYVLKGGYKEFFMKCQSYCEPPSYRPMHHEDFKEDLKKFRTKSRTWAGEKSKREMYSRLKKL

[5] = target: T2, M-phase inducer phosphatase 1 (Homo sapiens); assay: Reversible binding affinity to human recombinant full length GST-tagged CDC25A transfected in Escherichia coli BL21-DE3 after 1 hr by MALDI-TOF mass spectrometry
[6] = system: HT-29; assay: Cytotoxicity against human HT-29 cells assessed as inhibition of cell growth after 72 hrs by MTT assay; format: functional, cell-based; conditions: HT-29, 72 h
[7] = system: MCF7; assay: Cytotoxicity against human MCF7 cells assessed as inhibition of cell growth at IC50 concentration after 72 hrs by trypan blue assay; format: functional
[8] = target: T3, M-phase inducer phosphatase 3 (Homo sapiens) (UniProt P30307); assay: Inhibition of human recombinant full length GST-tagged CDC25C transfected in Escherichia coli BL21-DE3 using 3-O-methylfluorescein phosphate as substrate at 10 uM incubated for 20 mins followed by substrate addition measured every 10 mins for 2 hrs by fluorimetric assay
T3 sequence (whole entry): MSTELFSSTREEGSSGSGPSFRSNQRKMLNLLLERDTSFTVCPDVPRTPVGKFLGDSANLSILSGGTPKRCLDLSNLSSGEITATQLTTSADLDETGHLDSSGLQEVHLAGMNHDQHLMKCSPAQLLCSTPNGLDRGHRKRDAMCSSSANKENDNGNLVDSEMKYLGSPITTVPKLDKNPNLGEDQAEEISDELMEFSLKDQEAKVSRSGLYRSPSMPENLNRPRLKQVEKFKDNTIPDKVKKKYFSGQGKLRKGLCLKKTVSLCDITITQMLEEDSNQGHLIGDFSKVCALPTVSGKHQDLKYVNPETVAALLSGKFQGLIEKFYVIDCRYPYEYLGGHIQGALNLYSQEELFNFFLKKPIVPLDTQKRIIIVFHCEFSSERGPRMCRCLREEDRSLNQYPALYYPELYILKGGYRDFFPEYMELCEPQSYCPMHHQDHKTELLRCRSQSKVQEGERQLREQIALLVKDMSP

[9] = target: T4, M-phase inducer phosphatase 1 (Homo sapiens, UniProt P30304); assay: Inhibition of human recombinant full length GST-tagged CDC25A transfected in Escherichia coli BL21-DE3 using 3-O-methylfluorescein phosphate as substrate incubated for 20 mins followed by substrate addition measured every 10 mins for 2 hrs by fluorimetric assay
T4 sequence (P30304 whole entry): T2 sequence (whole entry)

[10] = system: MCF7; assay: Cytotoxicity against human MCF7 cells assessed as inhibition of cell growth after 72 hrs by MTT assay; format: functional, cell-based; conditions: MCF7, 72 h
[11] = Cytotoxicity against human HCT116 cells assessed as inhibition of cell growth after 72 hrs by MTT assay; format: functional, cell-based; conditions: HCT-116, 72 h
[12] = target: T2, M-phase inducer phosphatase 1 (Homo sapiens); assay: as §1, with “assay in presence of 0.5% triton X 100” for “assay”
[13] = target: T2, M-phase inducer phosphatase 1 (Homo sapiens); assay: as §1, with “assay in presence of 0.01% triton X 100” for “assay”
[14] = target: T2, M-phase inducer phosphatase 1 (Homo sapiens); assay: (§2) Inhibition of human recombinant full length GST-tagged CDC25A transfected in Escherichia coli BL21-DE3 using 3-O-methylfluorescein phosphate as substrate at 10 uM incubated for 20 mins followed by substrate addition measured every 10 mins for 2 hrs by fluorimetric assay in presence of 0.1% BSA
[15] = target: T2, M-phase inducer phosphatase 1 (Homo sapiens); assay: as §1, with “assay in presence of 0.05% triton X 100” for “assay”
[16] = target: T2, M-phase inducer phosphatase 1 (Homo sapiens); assay: as §2, with “triton X 100” for “BSA”
[17] = target: T2, M-phase inducer phosphatase 1 (Homo sapiens); assay: as §1, with “assay in presence of 0.025% triton X 100” for “assay”
[18] = system: MDA-MB-231; assay: Cytotoxicity against human MDA-MB-231 cells assessed as cell growth at IC50 concentration after 72 hrs by trypan blue assay; format: functional
[19] = system: MCF7; assay: Cytotoxicity against human MCF7 cells assessed as cell growth at IC50 concentration after 72 hrs by trypan blue assay; format: functional

| SMILES | growth inhibition (GI) [1] | inhibition [2] | IC50 [3] | inhibition [4] | Activity [5] | IC50 [6] | growth inhibition (GI) [7] | inhibition [8] | IC50 [9] | IC50 [10] | IC50 [11] | inhibition [12] | inhibition [13] | inhibition [14] | inhibition [15] | inhibition [16] | inhibition [17] | Activity [18] | Activity [19] |
| --- | --- | --- | --- | --- | --- | --- | --- | --- | --- | --- | --- | --- | --- | --- | --- | --- | --- | --- | --- |
| Cc1ccc(/C=C2/S/C(=N\c3nc4cc(-c5ccc(Cl)cc5)sc4s3)NC2=O)cc1 | 70% | 24.2% | 22.8 µM | 68.1% | Active | 45.5 µM | inactive | 23.3% | 8.3 µM | 3.3 µM |  |  |  |  |  |  |  |  |  |
| O=C1CS/C(=N\c2nc3cc(-c4ccc(Cl)cc4)sc3s2)N1 |  | 21.6% | 18.8 µM | 6.8% |  | 13.6 µM |  | 16.4% |  | 12.4 µM | 14.5 µM |  |  |  |  |  |  |  |  |
| O=C1N/C(=N/c2nc3cc(-c4ccc(Br)cc4)sc3s2)S/C1=C/c1ccc(Cl)cc1 | 35% | 3.8% | 22.3 µM | 28.4% |  | 15.2 µM | 25% | 6.1% |  | 11 µM | 15.5 µM |  |  |  |  |  |  |  |  |
| O=C1CS/C(=N\c2nc3cc(-c4ccc(Cl)cc4)[se]c3s2)N1 |  | 17.4% | 35.6 µM | 4.2% |  | 42.4 µM |  | 15.6% |  | 21.8 µM | 43.8 µM |  |  |  |  |  |  |  |  |
| O=C1N/C(=N/c2nc3cc(-c4ccc(Cl)cc4)sc3s2)S/C1=C/c1ccc(F)cc1 | 30% | 35.4% | 24.7 µM | 65.6% | Active | > 50 µM | 60% | 15.5% | 7.8 µM | 21 µM |  |  |  |  |  |  |  |  |  |
| O=C1N/C(=N/c2nc3cc(-c4ccc(Cl)cc4)sc3s2)S/C1=C/c1ccc(Cl)cc1 |  |  |  |  |  | > 50 µM |  |  |  | > 50 µM |  |  |  |  |  |  |  |  |  |
| O=C1C=CC(=O)c2ccccc21 |  | 71.2% |  | 79.7% |  |  |  | 99.2% |  |  |  | 26.3% | 20.6% | 20.3% | 26.5% | 24.7% | 18.6% |  |  |
| CN(C)c1ccc(/C=C2/S/C(=N\c3nc4cc(-c5ccc(Cl)cc5)sc4s3)NC2=O)cc1 |  |  |  |  |  | > 50 µM |  |  |  | > 50 µM |  |  |  |  |  |  |  |  |  |
| O=C1N/C(=N/c2nc3cc(-c4ccc(Cl)cc4)sc3s2)S/C1=C/c1ccc2ccccc2c1 |  | 27.3% | > 50 µM | 67% | Active | > 50 µM |  | 22.6% | 7.3 µM | 15.2 µM |  |  |  |  |  |  |  | >80% | >80% |
